Consider 5 compounds from DBAASP.

Among the test systems are Pseudomonas aeruginosa; Enterobacter cloacae; Acinetobacter baumannii; Staphylococcus aureus.
What all share (test): ≥ marks a high value that may be exact or a test limit, other limits are often not marked, values filed in µg/mL are converted to µM
The test system of test [1] is Aeromonas salmonicida CIP 103209T.
In test [2] the test system is Bacillus megaterium CIP 51.17.
For test [3], the system named is Salmonella typhimurium CIP 103446.
Test [4] relates to Vibrio alginolyticus CIP 109819.
Test [5] relates to Escherichia coli CIP 54.8T.
Test [6] deals with Enterococcus faecalis CIP 76.117.
The test system of test [7] is Staphylococcus aureus CIP 53.156.
Test [8] deals with Listeria monocytogenes CIP 110871.
The test system of test [9] is Staphylococcus pseudintermedius.
Test [10] deals with Pseudomonas aeruginosa ATCC 27853.
In test [11] the test system is Staphylococcus aureus ATCC 29213.
In test [12] the test system is Bordetella bronchiseptica CUN 11844-99.
Test [13] has as its system Pseudomonas aeruginosa CUN 4158-02.
Test [14] concerns Escherichia coli ATCC 25922.
The subject of test [15] is Staphylococcus aureus ATCC 25923.
Test [16] has as its system Salmonella enterica subsp. enterica serovar Typhimurium ATCC 14028.
Test [17] deals with Enterococcus hirae ATCC 10541.
Test [18] concerns Salmonella enterica subsp. enterica serovar Choleraesuis ATCC 10708.
Test [19] relates to Staphylococcus epidermidis ATCC 12228.
For test [20], the system named is Streptococcus pneumoniae ATCC 11733.
Test [21] has as its system Staphylococcus aureus CCT 6538.
The subject of test [22] is Streptococcus mutans AU159.
In test [23] the test system is Pseudomonas aeruginosa ATCC 13388.
For test [24], the system named is Pseudomonas aeruginosa ATCC 15422.
Test [25] relates to Enterococcus faecium CCT 5079.
For test [26], the system named is Bacillus cereus ATCC 11778.
The subject of test [27] is Escherichia coli ATCC 11775.
In test [28] the test system is Bacillus thuringiensis ATCC 10792.
For test [29], the system named is Escherichia coli CCT 1457.
In test [30] the test system is Staphylococcus aureus CCT 2580.
The subject of test [31] is Micrococcus luteus ATCC 4698.
The test system of test [32] is Klebsiella pneumoniae ATCC 13883.
The test system of test [33] is Pseudomonas aeruginosa PAO1.
Test [34] deals with Staphylococcus aureus ATCC 12600.
In test [35] the test system is Klebsiella pneumoniae KpC+001825971.
The test system of test [36] is Escherichia coli KpC+001812446.
Test [37] has as its system Escherichia coli ATCC 8739.
In test [38] the test system is Pseudomonas aeruginosa PA14.

Converted amounts (≈) assume the structure as drawn. Some results are limits rather than exact numbers.

`CC[C@H](C)[C@H](NC(=O)[C@@H](N)CCCCN)C(=O)N[C@@H](CCCN=C(N)N)C(=O)N[C@@H](Cc1ccccc1)C(=O)N[C@H](C(=O)N[C@@H](CCCN=C(N)N)C(=O)N[C@H](C(=O)N[C@H](C(=O)N[C@@H](CO)C(=O)N[C@@H](CCCN=C(N)N)C(=O)N[C@@H](CC(C)C)C(=O)N[C@@H](CC(C)C)C(=O)N[C@@H](CCCCN)C(=O)N[C@@H](C)C(=O)N[C@@H](C)C(=O)N[C@@H](CC(C)C)C(=O)N[C@@H](C)C(=O)N[C@@H](CO)C(=O)N[C@H](C(=O)O)[C@@H](C)O)C(C)C)[C@@H](C)O)[C@@H](C)O` [KIRFTRTVSRLLKAALAST]: the minimal inhibitory concentration (MIC) in test [1] was 15.8 µM (≈ 33.7 µg/mL); in test [2] it was 3.16 µM (≈ 6.74 µg/mL); in test [3], not below 86.6 µM; in [4] it was not below 35.4 µM; in [5], 3.16 µM (≈ 6.74 µg/mL); in test [6], not below 122 µM. Besides, the MIC was 15.8 µM (≈ 33.7 µg/mL) in [7] and not below 50 µM in [8].

As to `CC[C@H](C)[C@H](NC(=O)[C@H](CC(C)C)NC(=O)[C@@H]1CCCN1C(=O)[C@H](CCCCN)NC(=O)[C@H](CC(C)C)NC(=O)[C@H](CCCN=C(N)N)NC(=O)[C@H](CCCN=C(N)N)NC(=O)[C@H](CC(C)C)NC(C)=O)C(=O)N[C@@H](CCCN=C(N)N)C(=O)N1CCC[C@H]1C(=O)N[C@@H](Cc1c[nH]c2ccccc12)C(=O)N[C@@H](CC(C)C)C(=O)N[C@@H](CCCN=C(N)N)C(=O)N1CCC[C@H]1C(=O)N[C@@H](CC(C)C)C(=O)N[C@@H](CCCN=C(N)N)C(=O)N[C@@H](CCCN=C(N)N)C(=O)N[C@@H](Cc1c[nH]c2ccccc12)C(=O)N[C@@H](Cc1c[nH]c2ccccc12)C(=O)N[C@@H](Cc1c[nH]c2ccccc12)C(N)=O` [LRRLKPLIRPWLRPLRRWWW], the MIC amounted to 16.2 µM (≈ 45.9 µg/mL) in test [9], 5.72 µM (≈ 16.2 µg/mL) in [10], 4.04 µM (≈ 11.5 µg/mL) in the test on Pseudomonas aeruginosa and 11.4 µM (≈ 32.5 µg/mL) in test [11].

On to `CC[C@H](C)[C@H](NC(=O)CN)C(=O)NCC(=O)N[C@@H](CCCCN)C(=O)N[C@@H](Cc1ccccc1)C(=O)N[C@@H](CO)C(=O)N[C@@H](CCCCN)C(=O)N[C@@H](CCCCN)C(=O)NCC(=O)N[C@@H](C)C(=O)N[C@@H](C)C(=O)N[C@@H](C)C(=O)N[C@@H](CCCN=C(N)N)C(=O)N[C@@H](CCCN=C(N)N)C(=O)N[C@@H](CCCN=C(N)N)C(=O)N[C@@H](CCCCN)C(=O)N[C@H](C(=O)N[C@@H](CO)C(=O)N[C@@H](CC(C)C)C(=O)N[C@@H](CCCCN)C(=O)N[C@@H](C)C(=O)N[C@@H](CC(C)C)C(N)=O)C(C)C` [GIGKFSKKGAAARRRKVSLKAL], for which the MIC was not below 219 µM in [12], not below 219 µM in test [13], more than 219 µM in test [14] and more than 219 µM in [15].

In the case of `CC[C@H](C)[C@H](N)C(=O)N[C@@H](CC(N)=O)C(=O)N[C@@H](Cc1c[nH]c2ccccc12)C(=O)N[C@@H](CC(C)C)C(=O)N[C@@H](C)C(=O)N[C@H](C(=O)N[C@@H](C)C(=O)N[C@@H](CCCCN)C(=O)N[C@@H](CCCCN)C(=O)N[C@H](C(=O)N[C@@H](C)C(=O)NCC(=O)N[C@@H](CCSC)C(=O)N[C@@H](CC(C)C)C(N)=O)C(C)C)[C@@H](C)CC` [INWLAIAKKVAGML], the MIC in test [16] was determined as 20.3 µM (≈ 31 µg/mL); in [17], 5.24 µM (≈ 8 µg/mL); in test [18], 10.5 µM (≈ 16 µg/mL); in [19], 2.62 µM (≈ 4 µg/mL); in test [20] it was 1.31 µM (≈ 2 µg/mL); in [21], 2.62 µM (≈ 4 µg/mL). Also, the MIC is 2.62 µM (≈ 4 µg/mL) in test [22]; not below 41.2 µM in [23]; 10.5 µM (≈ 16 µg/mL) in test [24]; 5.24 µM (≈ 8 µg/mL) in test [25]; 2.62 µM (≈ 4 µg/mL) in [14]; 10.5 µM (≈ 16 µg/mL) in [26]. Further, the MIC in test [27] worked out at 5.24 µM (≈ 8 µg/mL); in test [28], 5.24 µM (≈ 8 µg/mL); in [29], 2.62 µM (≈ 4 µg/mL); in test [30], 2.62 µM (≈ 4 µg/mL); in test [31] it was 2.62 µM (≈ 4 µg/mL); in test [15], 15.1 µM (≈ 23 µg/mL).

Regarding `CC[C@H](C)[C@H](NC(=O)[C@H](CCCCN)NC(=O)[C@H](CCCCN)NC(=O)CNC(=O)[C@H](CC(C)C)NC(=O)[C@H](CCCN=C(N)N)NC(=O)[C@H](CCCCN)NC(=O)[C@H](CC(C)C)NC(=O)[C@H](CC(C)C)NC(=O)[C@H](CCCCN)NC(=O)[C@H](CCSC)NC(=O)[C@@H]1CCCN1)C(=O)N[C@@H](CCCN=C(N)N)C(=O)N[C@@H](CC(C)C)C(=O)N[C@@H](C)C(=O)N[C@@H](C)C(=O)N[C@@H](C)C(=O)N[C@@H](Cc1ccccc1)C(=O)N[C@@H](CCCCN)C(=O)O` [PMKLLKRLGKKIRLAAAFK], the minimal inhibitory concentration (MIC) in test [32] is 8 µM (≈ 17.5 µg/mL); with Enterobacter cloacae it was not below 32 µM; against Acinetobacter baumannii, 4 µM (≈ 8.73 µg/mL); in [33], 4 µM (≈ 8.73 µg/mL); in [34], 4 µM (≈ 8.73 µg/mL); in test [35] it was not below 32 µM. In addition, the minimal inhibitory concentration (MIC) was determined as 4 µM (≈ 8.73 µg/mL) in test [14]; 2 µM (≈ 4.37 µg/mL) in [36]; 16 µM (≈ 34.9 µg/mL) in test [15]; 14.7 µM (≈ 32 µg/mL) in test [37]; 4 µM (≈ 8.73 µg/mL) in test [38]; 16 µM (≈ 34.9 µg/mL) against Staphylococcus aureus.

For orientation: MIC means the lowest concentration that inhibits growth of the organism. A high value points to a less susceptible organism.
